Measured values: patent US11420947B2, “(S)-n-hydroxy-2-(2-(4-methoxyphenyl)butanamido)thiazole-5-carboxamide and pharmaceutically acceptable salts thereof” (TRANSLATIONAL DRUG DEVELOPMENT, LLC, priority 2018, dated 2022)
Where two headings read alike, the source gives them in different places.

Columns and labels:
[1] = test system: A2780cp; experiment: CellTiter-Glo cell viability assay; type: cell-based, Human; settings: for IC50: A2780C/P, A2780cp, OVARIAN, Platinum res-Human Ovarian, 72 hours
Protocol: (§1) Cell viability in the presence of varying concentrations of the above listed compounds at different time points was used to assess cytotoxicity and the effect of the compounds on cell proliferation.
(§2) Cell viability was measured by the CellTiter-Glo® cell viability assay from Promega (Madison, Wis.). The CellTiter-Glo® Luminescent Cell Viability Assay is a homogeneous method to determine the number of viable cells in culture based on quantitation of the ATP present, which signals the presence of metabolically active cells. Following treatment, CellTiter-Glo® is added to treatment wells and incubated at 37° C. luminescence values were measured at using a Molecular Devices Spectramax microplate reader
(§3) Cells were grown to 70% confluency, trypsinized, counted, and seeded in 96 well flat-bottom plates at a final concentration of 2.5×10^3-5×10^3 cells/well (Day 0). Cells were allowed to incubate in growth media for 24 hours. Treatment with the test agents or standard agents began on Day 1 and continued for 72 hours. At the 72-hour timepoint, treatment containing media was removed. Viable cell numbers are quantified by the CellTiter-Glo® cell viability assay as described above. Results from these studies were used to calculate an IC50 value (concentration of drug that inhibits cell growth by 50 percent of control) for each compound.
(§4) For single agent and combination studies, data from each experiment was collected and expressed as % Cell Growth using the following calculation: % Cell Growth=(ftest/fvehicle)×100
(§5) Where test is the fluorescence of the tested sample, and fvehicle is the fluorescence of the vehicle in which the drug is dissolved. Dose response graphs and IC50 values were generated using Prism 6 software (GraphPad) using the following equation: Y=(Top-Bottom)/(1+10^((logIC^50^-X)-HillSlope))

[2] = test system: A2780; experiment: CellTiter-Glo cell viability assay; type: cell-based, Human; settings: for IC50: A2780, OVARIAN, Human Ovarian, 72 hours
Protocol: as §1, §2, §3, §4, §5

[3] = test system: SCCOHT-1; experiment: CellTiter-Glo cell viability assay; type: cell-based, Human; settings: for IC50: SCCOHT-1, OVARIAN, Human Small Cell Carcinoma of the Ovary, 72 hours
Protocol: as §1, §2, §3, §4, §5

[4] = test system: COV434; experiment: CellTiter-Glo cell viability assay; type: cell-based, Human; settings: for IC50: COV434, OVARIAN, Human Ovarian Granulosa, 72 hours
Protocol: as §1, §2, §3, §4, §5

[5] = test system: BIN-67; experiment: CellTiter-Glo cell viability assay; type: cell-based, Human; settings: for IC50: BIN-67, OVARIAN, Human Small Cell Carcinoma of the Ovary, 72 hours
Protocol: as §1, §2, §3, §4, §5

[6] = test system: SKOV-3; experiment: CellTiter-Glo cell viability assay; type: cell-based, Human; settings: for IC50: SK-OV-3, SKOV-3, OVARIAN, Human Ovarian Carcinoma, 72 hours
Protocol: as §1, §2, §3, §4, §5

[7] = test system: OVCAR-3; experiment: CellTiter-Glo cell viability assay; type: cell-based, Human; settings: for IC50: OVCAR-3, OVARIAN, Human Ovarian Carcinoma, 72 hours
Protocol: as §1, §2, §3, §4, §5

[8] = test system: OVCAR-8; experiment: CellTiter-Glo cell viability assay; type: cell-based, Human; settings: for IC50: OVCAR-8, OVARIAN, Human Ovarian Carcinoma, 72 hours
Protocol: as §1, §2, §3, §4, §5

[9] = test system: IGROV-1; experiment: CellTiter-Glo cell viability assay; type: cell-based, Human; settings: for IC50: IGROV-1, OVARIAN, Human Ovarian Adenocarcinoma, 72 hours
Protocol: as §1, §2, §3, §4, §5

[10] = test system: MC38; experiment: CellTiter-Glo cell viability assay; type: cell-based, Murine; settings: for IC50: Mus musculus, MC-38, MC38, MURINE COLON, Colon, 72 hours
Protocol: as §1, §2, §3, §4, §5

[11] = test system: CT26; experiment: CellTiter-Glo cell viability assay; type: cell-based, Murine; settings: for IC50: Mus musculus, CT26, MURINE COLON, Colon, 72 hours
Protocol: as §1, §2, §3, §4, §5

[12] = test system: 4T1; experiment: CellTiter-Glo cell viability assay; type: cell-based, Murine; settings: for IC50: Mus musculus, 4T1, BREAST, Murine Breast Tumor, 72 hours
Protocol: as §1, §2, §3, §4, §5

[13] = test system: L1210; experiment: CellTiter-Glo cell viability assay; type: cell-based, Murine; settings: for IC50: Mus musculus, L1210, HEMATOPIETIC, Murine Leukemia, 72 hours
Protocol: as §1, §2, §3, §4, §5

[14] = test system: GL261; experiment: CellTiter-Glo cell viability assay; type: cell-based, Murine; settings: for IC50: Mus musculus, GL261, MURINE BRAIN, Murine Glioma, 72 hours
Protocol: as §1, §2, §3, §4, §5

[15] = test system: MFE296; experiment: CellTiter-Glo cell viability assay; type: cell-based; settings: for IC50: Homo sapiens, MFE-296, MFE296, ENDOMETRIAL, Endometrial, 72 hours
Outline: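 Seeded at 2.5×10^3–5×10^3/well; 72 h continuous treatment; ATP luminescence viability; IC50 vs vehicle.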

[16] = Pharmacokinetics studies in mice; type: in vivo; settings: for AUC(0-inf) / AUC(0-t) / Cmax / Tmax / bioavailability / half-life / Vd/F: mouse, in vivo; for Vd/F: read-out: Vz/Fobs
Source text: Volume of distribution is one of the most important pharmacokinetic properties of a drug candidate and for an anticancer drug can result in increased drug distribution to the tumor.

[17] = IV-1 mg/kg, 5% Ethanol 5% Cremophor 90% Saline
[18] = PO-5 mg/kg, 10% Ethanol 90% Labrasol
[19] = SC-5 mg/kg, 5% Ethanol 5% Cremophor 90% Saline

## CCC(C(=O)Nc1ncc(C(=O)NO)s1)c1ccc(OC)cc1 (racemic) [#1, N-hydroxy-2-(2-(4-methoxyphenyl)butanamido)thiazole-5-carboxamide]
[1]
  IC50: 117 nM
[2]
  IC50: 48 nM
[3]
  IC50: 341 nM
[4]
  IC50: 47 nM
[5]
  IC50: 68 nM
[6]
  IC50: 113 nM
[7]
  IC50: 65 nM
[8]
  IC50: 36 nM
[9]
  IC50: 78 nM
[10]
  IC50: 128 nM
[11]
  IC50: 1320 nM
[12]
  IC50: 36 nM
[13]
  IC50: 59 nM
[14]
  IC50: 372 nM
[15]
  IC50: 52 nM
[16]; PO-5 mg/kg
  AUC % Extrap: 5.51%
  CI/Fobs: 483.2 mL/min/kg
  AUC(0-inf): 172 ng·h/mL
  AUC(0-t): 163 ng·h/mL
  Cmax: 30.8 ng/mL
  Tmax: 30 min
  bioavailability: 14.3%
  half-life: 326 min
  Vd/F: 228 L/kg

## CC[C@H](C(=O)Nc1ncc(C(=O)NO)s1)c1ccc(OC)cc1 [#1a, (S)—N-hydroxy-2-(2-(4-methoxyphenyl)butanamido)thiazole-5-carboxamide]
[1]
  IC50: 62 nM
[1]; ratio of IC50, A2780cp
  #1/#1a: 1.89
  #1b/#1a: 6.1
[2]
  IC50: 32 nM
[2]; ratio of IC50, A2780
  #1/#1a: 1.5
  #1b/#1a: 6.84
[3]
  IC50: 293 nM
[3]; ratio of IC50, SCCOHT-1
  #1/#1a: 1.16
  #1b/#1a: 0.63
[4]
  IC50: 35 nM
[4]; ratio of IC50, COV434
  #1b/#1a: 9.69
[5]
  IC50: 51 nM
[5]; ratio of IC50, BIN-67
  #1/#1a: 1.33
  #1b/#1a: 8.82
[6]
  IC50: 63 nM
[6]; ratio of IC50, SKOV-3
  #1/#1a: 1.79
  #1b/#1a: 8.08
[7]
  IC50: 39 nM
[7]; ratio of IC50, OVCAR-3
  #1/#1a: 1.67
  #1b/#1a: 6.26
[8]
  IC50: 21 nM
[8]; ratio of IC50, OVCAR-8
  #1/#1a: 1.71
  #1b/#1a: 5.38
[9]
  IC50: 54 nM
[9]; ratio of IC50, IGROV-1
  #1/#1a: 1.44
  #1b/#1a: 9.07
[10]
  IC50: 58 nM
[10]; ratio of IC50, MC38
  #1/#1a: 2.21
  #1b/#1a: 8.5
[11]
  IC50: 465 nM
[11]; ratio of IC50, CT26
  #1/#1a: 2.83
  #1b/#1a: 6.91
[12]
  IC50: 23 nM
[12]; ratio of IC50, 4T1
  #1/#1a: 1.57
  #1b/#1a: 8.04
[13]
  IC50: 38 nM
[13]; ratio of IC50, L1210
  #1/#1a: 1.55
  #1b/#1a: 8.53
[14]
  IC50: 132 nM
[14]; ratio of IC50, GL261
  #1/#1a: 2.82
  #1b/#1a: 9.11
[15]
  IC50: 35 nM
[15]; ratio of IC50, MFE296
  #1/#1a: 1.49
  #1b/#1a: 5.83
[16]; [17]
  AUC % Extrap: 0.20%
  CI/Fobs: 156 mL/min/kg
  AUC(0-inf): 107 ng·h/mL
  AUC(0-t): 106 ng·h/mL
  Cmax: 131 ng/mL
  Tmax: 15 min
  half-life: 55.8 min
[16]; PO-5 mg/kg
  AUC % Extrap: 1.93%
  CI/Fobs: 1122 mL/min/kg
  AUC(0-inf): 74.3 ng·h/mL
  AUC(0-t): 72.8 ng·h/mL
  Cmax: 28.7 ng/mL
  Tmax: 30 min
  bioavailability: 13.9%
  half-life: 332 min
  Vd/F: 537 L/kg
[16]; [18]
  AUC % Extrap: 1.93%
  CI/Fobs: 1122 mL/min/kg
[16]; [19]
  AUC % Extrap: 0.85%
  CI/Fobs: 240.3 mL/min/kg
  AUC(0-inf): 347 ng·h/mL
  AUC(0-t): 344 ng·h/mL
  Cmax: 252 ng/mL
  Tmax: 15 min
  bioavailability: 65.1%
  half-life: 73.2 min
  Vd/F: 25.3 L/kg

## CC[C@@H](C(=O)Nc1ncc(C(=O)NO)s1)c1ccc(OC)cc1 [#1b, (R)—N-hydroxy-2-(2-(4-methoxyphenyl)butanamido)thiazole-5-carboxamide]
[1]
  IC50: 378 nM
[2]
  IC50: 219 nM
[3]
  IC50: 185 nM
[4]
  IC50: 339 nM
[5]
  IC50: 450 nM
[6]
  IC50: 509 nM
[7]
  IC50: 244 nM
[8]
  IC50: 113 nM
[9]
  IC50: 490 nM
[10]
  IC50: 493 nM
[11]
  IC50: 3210 nM
[12]
  IC50: 185 nM
[13]
  IC50: 324 nM
[14]
  IC50: 1200 nM
[15]
  IC50: 204 nM
[16]; PO-5 mg/kg
  AUC % Extrap: 1.02%
  CI/Fobs: 912 mL/min/kg
  AUC(0-inf): 91.4 ng·h/mL
  AUC(0-t): 90.4 ng·h/mL
  Cmax: 20.9 ng/mL
  Tmax: 60 min
  bioavailability: 16.2%
  half-life: 216 min
  Vd/F: 284 L/kg
